Measurements published in PubChem BioAssay (NCI).
“And” between values parts separate entries of the source, which are not always exact repeats. Equal values may be shown once.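 1) Cells in 96-well plates. 2) Compound, 48 h, 5 concentrations. 3) Linear interpolation between surrounding doses. 4) Unreached endpoint = highest concentration. GI50: concentration for 50% inhibition of growth. TGI: total growth inhibition.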

Experiments:
Experiment in all cases: NCI tumour cell line growth inhibition, 48 h
M14 melanoma = test system: M14 melanoma
NCI-H460 lung = test system: NCI-H460 lung
A549 NSCLC = test system: A549 NSCLC
OVCAR-5 ovarian = test system: OVCAR-5 ovarian
SK-MEL-5 melanoma = test system: SK-MEL-5 melanoma
SF-295 CNS = test system: SF-295 CNS
PC-3 prostate = test system: PC-3 prostate
MDA-N = test system: MDA-N
BT-549 breast = test system: BT-549 breast
MDA-MB-435 = test system: MDA-MB-435

Row | Compound | TGI (M14 melanoma) | TGI (NCI-H460 lung) | TGI (A549 NSCLC) | TGI (OVCAR-5 ovarian) | TGI (SK-MEL-5 melanoma) | TGI (SF-295 CNS) | TGI (PC-3 prostate) | TGI (MDA-N) | TGI (BT-549 breast) | TGI (MDA-MB-435) | GI50 (NCI-H460 lung) | GI50 (PC-3 prostate) | GI50 (A549 NSCLC) | GI50 (OVCAR-5 ovarian) | GI50 (SK-MEL-5 melanoma) | GI50 (SF-295 CNS)
1 | OC12CCCCCC1(N1CCOCC1)c1ccccc12 (stereo not drawn) | > 100 µM | > 100 µM | > 100 µM | > 100 µM | > 100 µM | > 100 µM | – | – | – | – | – | – | – | – | – | –
2 | CC(=O)NC1=C(NCC(C)C)C(=O)c2ccccc2C1=O | 33.2 µM | > 100 µM | > 100 µM | > 100 µM | 43.6 µM | > 100 µM | – | – | – | – | – | – | – | – | – | –
3 | O=[N+]([O-])/C=C/c1cn(CCCCCn2cc(/C=C/[N+](=O)[O-])c3ccccc32)c2ccccc12 | 15.1 µM | 17.4 µM | 11.7 µM | 32.3 µM | 3.46 µM | > 43.9 µM | 15 µM | 6.67 µM | 6.72 µM | – | – | – | – | – | – | –
4 | O=C1CSc2nnc(CCCCCCCCc3nnc4n3NC(=O)CS4)n2N1 | > 100 µM | > 100 µM | > 100 µM | > 100 µM | – | > 100 µM | > 100 µM | > 100 µM | > 100 µM | > 100 µM | – | – | – | – | – | –
5 | COC(=O)n1c(C[P+](c2ccccc2)(c2ccccc2)c2ccccc2)cc2ccccc21 | 7.37 µM | 12.2 µM | 12.4 µM | 8.66 µM | 3.93 µM | 5.9 µM | – | – | – | – | – | – | – | – | – | –
6 | CCN(CC)CCCCC1CCN(CC(=O)N2c3ccccc3NC(=O)CC2C)CC1 (stereo not drawn) | > 100 µM | > 100 µM | > 100 µM | > 100 µM | > 100 µM | > 100 µM | – | – | – | – | – | – | – | – | – | –
7 | C/C(=C\Cc1cc(O)ccc1O)CCc1c(C)cc(O)c(C=O)c1C | 63.1 µM | 67.2 µM | > 100 µM | – | 31.7 µM | 79 µM | – | – | – | – | – | – | – | – | – | –
8 | O=S(=O)(O)C1CCC(O)C2[N-]CCCC21.O=S(=O)(O)C1CCC(O)C2[N-]CCCC21.[Zn+2] (stereo not drawn) | > 100 µM | > 100 µM | > 100 µM | > 100 µM | > 100 µM | > 100 µM | > 100 µM | – | > 100 µM | > 100 µM | – | – | – | – | – | –
9 | CCCCCCOc1ccc(C(=N)N(CCCC)CCCC)c2ccccc12 | – | 3.01 µM | 3.31 µM | 2.94 µM | 2.85 µM | 3.17 µM | 3.05 µM | – | – | – | 1.56 µM | 1.53 µM | 1.76 µM | 1.53 µM | 1.52 µM | 1.6 µM
10 | O=c1c2c(nc3n1CCC3)sc1c(O)c(Br)ccc12 | > 100 µM | 34.4 µM | 29.9 µM | 51.7 µM | 30.4 µM | 35 µM | – | – | – | – | – | – | – | – | – | –
11 | CNc1ccc(S(=O)Nc2ccccc2)cc1 (stereo not drawn) | – | > 100 µM | > 100 µM | > 100 µM | 91.1 µM | > 100 µM | – | > 100 µM | – | > 100 µM | – | – | – | – | – | –
12 | COC(=O)C(C(=O)C(=O)NC1Nc2ccc(C)cc2S1)c1nc2ccc(Cl)cc2[nH]c1=O (stereo not drawn) | – | > 100 µM | > 100 µM | > 100 µM | > 100 µM | > 100 µM | > 100 µM | > 100 µM | > 100 µM | > 100 µM | – | – | – | – | – | –
13 | COC(=O)CC(NC(=O)OCc1ccccc1)C(C(=O)OCc1ccccc1)C1(C)OCCO1 (stereo not drawn) | > 100 µM | > 100 µM | > 100 µM | – | 32.7 µM | > 100 µM | – | – | – | – | – | – | – | – | – | –
14 | CC1=C2NCN(C)N=C2C(C#N)(C#N)C1(C#N)C#N | > 66.4 µM | – | > 100 µM | > 91.7 µM | > 71.4 µM | > 100 µM | 72.8 µM | 30 µM | 44.5 µM | 46.6 µM | – | – | – | – | – | –
15 | CC(=O)O[C@H]1C(=O)N(c2cc3c4ccccc4ccc3c3ccccc23)[C@@H]1c1ccccc1 | 23.1 µM | > 100 µM | 61.6 µM | > 100 µM | 67.1 µM | 53.5 µM | 65.3 µM | > 100 µM | – | 5.68 µM | – | – | – | – | – | –
16 | CC1(C)COC(c2c(-c3ccccc3)noc2CS(=O)c2ccccc2)=N1 (stereo not drawn) | > 100 µM | > 100 µM | > 100 µM | > 100 µM | > 100 µM | > 100 µM | – | – | – | – | – | – | – | – | – | –
17 | CCCCCCOP(=O)(OCCCCCC)OC(C(=O)OC)C(F)(F)F (stereo not drawn) | > 100 µM | – | > 100 µM | > 100 µM | > 100 µM | > 100 µM | > 100 µM | > 100 µM | > 100 µM | > 100 µM | – | – | – | – | – | –
18 | COc1ccc(-c2c3ccccc3c(-c3ccc(OCCCCCBr)cc3)c3ccccc23)cc1 | > 100 µM | > 100 µM | > 100 µM | > 100 µM | – | > 100 µM | – | – | – | – | – | – | – | – | – | –
19 | CC(C)=CCC[C@@H](C)c1c2[nH]c3ccccc3sc-2c(C)c(=O)c1=O | 48.5 µM | > 27 µM | 35.6 µM | > 75 µM | 19.7 µM | 40.6 µM | > 75 µM | – | > 75 µM | > 75 µM | – | – | – | – | – | –
20 | O=C(CSc1nc2ccc(I)cc2c(=O)n1Cc1ccccc1)NN1C(=O)CCC1=O | > 100 µM | > 100 µM | > 100 µM | > 100 µM | > 100 µM | > 100 µM | > 100 µM | > 100 µM | – | > 100 µM | – | – | – | – | – | –
21 | Cc1cc2occ(-c3ccc(Cl)cc3)c2c(=O)o1 | > 100 µM | > 100 µM | > 100 µM | > 100 µM | > 100 µM | > 100 µM | – | – | – | – | – | – | – | – | – | –
22 | CC(C)(C)CC(C)(C)c1ccc(OCCOCC[N+](C)(C)Cc2ccccc2)cc1 | 6.11 µM | 3.43 µM and 11.7 µM | 32.8 µM | 3.25 µM and 19.2 µM | – | 28.4 µM | – | – | – | – | 1.58 µM | – | – | 1.7 µM | – | –
23 | CNc1ccc(Cl)cc1S(=O)(=O)c1ccccc1[N+](=O)[O-] | > 100 µM | > 100 µM | > 100 µM | > 100 µM | > 100 µM | > 100 µM | > 100 µM | > 100 µM | > 100 µM | – | – | – | – | – | – | –
24 | CC(C)C1CC(CO)(CNc2cc(Cl)nc(N)n2)C1 (stereo not drawn) | – | > 100 µM | > 100 µM | > 100 µM | 40.8 µM | > 100 µM | > 100 µM | > 100 µM | > 100 µM | > 100 µM | – | – | – | – | – | –
25 | CCOC1=C2NC(Cc3ccc(F)cc3)=NC2C(=O)c2ccccc21 (stereo not drawn) | 73.4 µM | 52.4 µM | – | > 100 µM | – | – | – | – | – | – | – | – | – | – | – | –
26 | CC(=O)CC1(C)OC(N)=C(C#N)C1(C#N)C#N (stereo not drawn) | > 100 µM | – | > 100 µM | > 100 µM | > 100 µM | > 100 µM | > 100 µM | > 100 µM | – | > 100 µM | – | – | – | – | – | –
